The values that follow come from patent US5444082A, “3,9-disubstituted-spiro(5.5)undecanes active on the cardiovascular system, process for their preparation and pharmaceutical composition containing same” (Sigma-Tau Industrie Farmaceutiche Riunite S.p.A., priority 1992, dated 1995).

Each structure is given as a SMILES string.

Assay [1] concerns the target T1, Na^+,K^+ -ATPase (Homo sapiens, UniProt P05023).
T1 construct: receptor purified according to Jorgensen (Jorgensen P., BBA, 1974,356, 36); from tissue
Briefly: displacement of the specific 3H-ouabain binding from the purified Na+,K+-ATPase receptor. Particulars: read-out: Binding ^3 H-Ouab. Displacement log. IC50 (converted). The text has this:
(§1) To test the affinity for the receptor site of the Na^+,K^+ -ATPase and the agonist or antagonist activity on the enzyme, the following tests are used: a) displacement of the specific 3-Houabain binding from the Na^+,K^+ -ATPase receptor purified according to Jorgensen (Jorgensen P., BBA, 1974,356, 36) and Erdmann (L. Brown and E. Erdmann., Arzneim. Forsh., 1984, 34 (II), 1314); b) inhibition of the activity of the purified Na^+,K^+ -ATPase measured as % of hydrolysis of ^32 P-ATP in presence and in absence of the tested compound (F. Noel and Godfraind., Biochem. Pharmacol., 1984, 33, 47).

The target in assay [2] is T1, Na^+,K^+ -ATPase. In words: inhibition of the activity of the purified Na+,K+-ATPase, measured as % of hydrolysis of 32P-ATP. It is filed as biochemical. Particulars: read-out: Inhibitory Activity log IC50 (converted).
Text: as §1

Broadly, the IC50 is the concentration at which inhibition is half-maximal. Turning to `C(=CC1CCC2(CC1)CCC(OCCN1CCCC1)CC2)c1ccoc1` (mixture of isomers) [Comp. I-a, (EZ)-9-(2(N-Pyrrolidinyl)ethoxy)-3-(2-(3-furyl)vinyl)-spiro[5.5]undecane], the IC50 is 79.4 µM in assay [1] and 25.1 µM in assay [2].

On to `C1CCN(CCOC2CCC3(CCC(CCC4CCOC4)CC3)CC2)C1` (racemic) [Comp. 1-i, (RS)-9-(2-(N-Pyrrolidinyl)ethoxy)-3-(2-(3-(RS)-tetra-hydrofuryl)ethyl)-spiro[5.5]undecane], for which the IC50 in assay [1] and in assay [2] was 100 µM in each case.

Regarding `NCCSCC1CCC2(CC1)CCC(Cc1ccoc1)CC2` (stereo not shown) [Comp. 1-be, 9-(2-Aminoethylthiomethyl)-3-(3-furyl)methyl-spiro[5.5]undecane], the concentration for half-maximal inhibition (IC50) was 10 µM in assay [1] and 15.8 µM in assay [2].

As for `O=C1OCC=C1CCC1CCC2(CC1)CCC(OCCN1CCCC1)CC2` (stereo not shown) [Comp. 1-bg, 9-(2-(N-pyrrolidinyl)ethoxy)-3-(2-(2-oxo-[5H]-3-furyl)ethyl)-spiro[5.5]undecane], the concentration for half-maximal inhibition (IC50) in assay [1] and in assay [2] was 100 µM each time.

Take `OC1(Cc2ccoc2)CCC2(CCC(COCCN3CCCC3)CC2)CC1` (stereo not shown) [Comp. I-ab, 9-(2-(N-Pyrrolidinyl)ethoxy)methyl-3-(3-furyl)meth-yl-3-hydroxy-spiro[5.5]undecane]: the IC50 in assay [1] and in assay [2] was 15.8 µM each time.

`N=C(N)NN=C1CCC2(CC1)CCC(CO)CC2` (stereo not shown) [Comp. I-ay, 9-Hydroxymethyl-3-guanidinoimino-spiro[5.5]undecane]: the IC50 was 25.1 µM in assay [1] and 100 µM in assay [2].

As to `N=C(N)NN=CC1CCC2(CCC(O)CC2)CC1` (stereo not shown) [Comp. I-az, 9-Hydroxy-3-guanidinoiminomethyl-spirol[5.5]undecane], the values for the concentration for half-maximal inhibition (IC50) in assay [1] and in assay [2] were 15.8 µM and 63.1 µM, respectively.

Turning to `c1cc(CC2CCC3(CCC(CSCCN4CCCC4)CC3)CC2)co1` (stereo not shown) [Comp. I-bf, 9-(2-(N-Pyrrolidinyl)ethyl-thiomethyl)-3-(3-furyl)methyl-spiro[5.5]undecane], the IC50 was 39.8 µM in assay [1] and 100 µM in assay [2].

On to `O=C1C=C(CCC2CCC3(CC2)CCC(OCCN2CCCC2)CC3)CO1` (stereo not shown) [Comp. I-bh, 9-(2-(N-Pyrrolidinyl)ethoxy)-3-(2-(2-oxo-[5H]-4-furyl)-ethyl)-spiro[5.5]undecane], for which the IC50 in assay [1] is 63.1 µM; in assay [2], 100 µM.

With `c1cc(CCC2CCC3(CC2)CCC(OCCN2CCCC2)CC3)co1` (stereo not shown) [Comp. I-g, 9-(2-(N-Pyrrolidinyl)ethoxy)-3-(2-(3-furyl)ethyl)-spiro[5.5]undecane], the IC50 in assay [1] was 12.6 µM; in assay [2] it was 15.8 µM.

On to `c1cncc(CCC2CCC3(CC2)CCC(OCCN2CCCC2)CC3)c1` (stereo not shown) [Comp. I-h, 9-(2-(N-Pyrrolidinyl)ethoxy)-3-(2-(3-pyridyl)ethyl)-spiro[5.5]undecane], for which the IC50 in assay [1] was 25.1 µM; in assay [2] it was 100 µM.

Regarding `c1cc(CC2CCC3(CCC(COCCN4CCCC4)CC3)CC2)co1` (stereo not shown) [Comp. I-j, 9-(2-(N-Pyrrolidinyl)ethoxy)methyl-3-(3-furyl)methyl-spiro[5.5]undecane], the IC50 in assay [1] is 7.94 µM; in assay [2], 50.1 µM.

Turning to `c1cc(CCC2CCC3(CC2)CCC(OCCCN2CCCC2)CC3)co1` (stereo not shown) [Comp. I-m], the 50% inhibitory concentration (IC50) in assay [1] was 31.6 µM; in assay [2], 50.1 µM.

Consider `c1cc(CC2CCC3(CCC(COCCCN4CCCC4)CC3)CC2)co1` (stereo not shown) [Comp. I-r, 9-(3-(N-Pyrrolidinyl)propoxy)methyl-3-(3-furyl)-methyl-spiro[5.5]undecane], for which the figures for the 50% inhibitory concentration (IC50) in assay [1] and in assay [2] were 31.6 µM and 12.6 µM, respectively.

Take `OC(COC1CCC2(CCC(CCc3ccoc3)CC2)CC1)CN1CCCC1` (stereo not shown) [Comp. I-t, 9-(3-(N-Pyrrolidinyl)-2-hydroxypropoxy)-3-(2-(3-furyl)ethyl)-spiro[5.5]undecane]: the figures for the half-maximal inhibitory concentration (IC50) in assay [1] and in assay [2] were 100 µM and 50.1 µM, respectively.

Regarding `NC(CO)COC1CCC2(CCC(CCc3ccoc3)CC2)CC1` (stereo not shown) [Comp. I-u, 9-(2-Amino-3-hydroxypropoxy)-3-(2-(3-furyl)ethyl)-spiro[5.5]undecane], the IC50 in assay [1] and in assay [2] was 50.1 µM each time.

As for `OC1(CCc2ccoc2)CCC2(CCC(OCCN3CCCC3)CC2)CC1` (stereo not shown) [Comp. I-x, 9.(2-(N-pyrrolidinyl)ethoxy)-3-(2-(3-furyl)ethyl)-3-hydroxy-spiro[5.5]undecane], the IC50 in assay [1] and in assay [2] was 100 µM each time.
